According to patent US20230151025A1, “SUBSTITUTED THIAZOLOPYRIDINES, SALTS THEREOF AND THEIR USE AS HERBICIDALLY ACTIVE SUBSTANCES” (Bayer Aktiengesellschaft, priority 2020, published 2023):

Key:
Type in all cases: in vivo
[1] = tested on: Abutilon theophrasti (ABUTH); assay: Herbicidal pre-emergence action (A), 1280 g/ha; settings: visual grading after ca. 3 weeks vs untreated controls, 100% = plants have died off, 0% = as control plants
Procedure, shortened: (§1)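 Pre-emergence soil-surface spray, 600 l/ha water, 0.5% additive, WP or EC formulation. Sandy loam, double sowing per pot, greenhouse under optimum growth. Visual % damage at ~3 wk vs untreated; 100% = plants died off.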

[2] = tested on: Alopecurus myosuroides (ALOMY); assay: Herbicidal pre-emergence action (A), 1280 g/ha; settings: visual grading after ca. 3 weeks vs untreated controls, 100% = plants have died off, 0% = as control plants
Procedure, shortened: as §1

[3] = tested on: Amaranthus retroflexus (AMARE); assay: Herbicidal pre-emergence action (A), 1280 g/ha; settings: visual grading after ca. 3 weeks vs untreated controls
Procedure, shortened: as §1

[4] = tested on: Digitaria sanguinalis (DIGSA); assay: Herbicidal pre-emergence action (A), 1280 g/ha; settings: visual grading after ca. 3 weeks vs untreated controls, 100% = plants have died off, 0% = as control plants
Procedure, shortened: as §1

[5] = tested on: Echinochloa crus-galli (ECHCG); assay: Herbicidal pre-emergence action (A), 1280 g/ha; settings: visual grading after ca. 3 weeks vs untreated controls, 100% = plants have died off, 0% = as control plants
Procedure, shortened: as §1

[6] = tested on: Kochia scoparia (KCHSC; Bassia scoparia); assay: Herbicidal pre-emergence action (A), 1280 g/ha; settings: visual grading after ca. 3 weeks vs untreated controls
Procedure, shortened: as §1

[7] = tested on: Lolium rigidum (LOLRI); assay: Herbicidal pre-emergence action (A), 1280 g/ha; settings: visual grading after ca. 3 weeks vs untreated controls, 100% = plants have died off, 0% = as control plants
Procedure, shortened: as §1

[8] = tested on: Matricaria inodora (MATIN); assay: Herbicidal pre-emergence action (A), 1280 g/ha; settings: visual grading after ca. 3 weeks vs untreated controls
Procedure, shortened: as §1

[9] = tested on: Poa annua (POAAN); assay: Herbicidal pre-emergence action (A), 1280 g/ha; settings: visual grading after ca. 3 weeks vs untreated controls, 100% = plants have died off, 0% = as control plants
Procedure, shortened: as §1

[10] = tested on: Setaria viridis (SETVI); assay: Herbicidal pre-emergence action (A), 1280 g/ha; settings: visual grading after ca. 3 weeks vs untreated controls
Procedure, shortened: as §1

[11] = tested on: Stellaria media (STEME); assay: Herbicidal pre-emergence action (A), 1280 g/ha; settings: visual grading after ca. 3 weeks vs untreated controls
Procedure, shortened: as §1

[12] = tested on: Veronica persica (VERPE); assay: Herbicidal pre-emergence action (A), 1280 g/ha; settings: visual grading after ca. 3 weeks vs untreated controls
Procedure, shortened: as §1

[13] = tested on: Alopecurus myosuroides (ALOMY); assay: Herbicidal pre-emergence action (C), 320 g/ha; settings: ca. 3 weeks
Procedure, shortened: (§2)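 Visual percent damage relative to untreated controls was scored about 3 weeks after treatment, where 100% means plants died off and 0% means like controls. Compounds, as WP or EC with 0.5% additive, were applied in 600 l water/ha to the soil covering sown seeds.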

[14] = tested on: Amaranthus retroflexus (AMARE); assay: Herbicidal pre-emergence action (C), 320 g/ha; settings: ca. 3 weeks
Procedure, shortened: as §2

[15] = tested on: Echinochloa crus-galli (ECHCG); assay: Herbicidal pre-emergence action (C), 320 g/ha; settings: ca. 3 weeks
Procedure, shortened: as §2

[16] = tested on: Lolium rigidum (LOLRI); assay: Herbicidal pre-emergence action (C), 320 g/ha; settings: ca. 3 weeks
Procedure, shortened: as §2

[17] = tested on: Setaria viridis (SETVI); assay: Herbicidal pre-emergence action (C), 320 g/ha; settings: ca. 3 weeks
Procedure, shortened: as §2

[18] = tested on: Veronica persica (VERPE); assay: Herbicidal pre-emergence action (C), 320 g/ha; settings: ca. 3 weeks
Procedure, shortened: as §2

[19] = tested on: Digitaria sanguinalis (DIGSA); assay: Herbicidal pre-emergence action (C), 320 g/ha; settings: ca. 3 weeks
Procedure, shortened: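 Weed and crop seeds sown in sandy loam; WP or EC formulations applied pre-emergence to the soil surface as aqueous suspension/emulsion with 0.5% additive at 600 l water/ha. Greenhouse-grown under optimum conditions; damage visually scored after ca. 3 weeks versus untreated controls (0% = as control, 100% = plants dead).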

[20] = tested on: Alopecurus myosuroides (ALOMY); assay: Herbicidal post-emergence action (D), 320 g/ha; settings: ca. 3 weeks
Procedure, shortened: (§3)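 Post-emergence greenhouse test. Sandy loam; spray at single-leaf stage (2–3 wk after sowing); WP or EC in water + 0.5% additive, 600 l/ha. Visual rating ~3 wk post-spray, % effect vs untreated (0 = control, 100 = dead).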

[21] = tested on: Amaranthus retroflexus (AMARE); assay: Herbicidal post-emergence action (D), 320 g/ha; settings: ca. 3 weeks
Procedure, shortened: as §3

[22] = tested on: Echinochloa crus-galli (ECHCG); assay: Herbicidal post-emergence action (D), 320 g/ha; settings: ca. 3 weeks
Procedure, shortened: as §3

[23] = tested on: Polygonum convolvulus (POLCO); assay: Herbicidal post-emergence action (D), 320 g/ha; settings: ca. 3 weeks
Procedure, shortened: as §3

[24] = tested on: Veronica persica (VERPE); assay: Herbicidal post-emergence action (D), 320 g/ha; settings: ca. 3 weeks
Procedure, shortened: as §3

Structure (SMILES) | ABUTH, herbicidal effect in percent (%) [1] [%] | ALOMY, herbicidal effect in percent (%) [2] [%] | DIGSA, herbicidal effect in percent (%) [4] [%] | ECHCG, herbicidal effect in percent (%) [5] [%] | herbicidal effect KCHSC [6] [%] | LOLRI, herbicidal effect in percent (%) [7] [%] | herbicidal effect MATIN [8] [%] | POAAN, herbicidal effect in percent (%) [9] [%] | herbicidal effect SETVI [10] [%] | herbicidal effect STEME [11] [%] | herbicidal effect VERPE [12] [%] | herbicidal effect ALOMY [13] [%] | herbicidal effect AMARE [14] [%] | herbicidal effect ECHCG [15] [%] | herbicidal effect LOLRI [16] [%] | herbicidal effect SETVI [17] [%] | herbicidal effect VERPE [18] [%] | herbicidal effect DIGSA [19] [%] | herbicidal effect ALOMY [20] [%] | herbicidal effect VERPE [24] [%] | further results
Cc1cc2scnc2nc1-c1ccc(F)cc1F [Example I-122] | 100 | 100 | 100 | 100 | 100 | 100 | 100 | 100 | 100 | 100 | 100 | 100 | 90 | 100 | 100 | 100 | 90 | 100 | 90 | 90 | herbicidal effect AMARE [3]: 100%; herbicidal effect AMARE [21]: 80%; herbicidal effect ECHCG [22]: 80%; herbicidal effect POLCO [23]: 90%
Cc1cc2scnc2nc1-c1ccccc1Cl [Example I-045] | 90 | 100 | 100 | 100 | 100 | 100 | 100 | 100 | 100 | 100 | 100 | 100 | 90 | 100 | 100 | 100 | 90 | 100 | 90 | 90 | herbicidal effect AMARE [3]: 100%; herbicidal effect AMARE [21]: 100%; herbicidal effect ECHCG [22]: 90%; herbicidal effect POLCO [23]: 90%
CCc1cc2scnc2nc1-c1ccccc1C [Example I-093] | 90 | 100 | 100 | 90 | 100 | 100 | 100 | 100 | 100 | 100 | 100 | 100 | 90 | 100 | 100 | 100 | 90 | 100 | 90 | 90 | herbicidal effect AMARE [3]: 90%; herbicidal effect AMARE [21]: 90%
CCc1cc2scnc2nc1-c1ccccc1 [Example I-051] | 90 | 100 | 100 | 100 | 90 | 100 | 90 | 100 | 100 | 90 | 90 | 100 | 90 | 100 | 100 | 100 | 90 | 100 | 90 | 90 | herbicidal effect AMARE [21]: 90%; herbicidal effect ECHCG [22]: 90%; herbicidal effect POLCO [23]: 90%
COc1ccccc1-c1nc2ncsc2cc1C [Example I-124] | 100 | 100 | 100 | 100 | 100 | 100 | 100 | 100 | 100 | 100 | 100 | 100 | 90 | 100 | 100 | 100 | 90 | 100 | 90 | 90 | herbicidal effect AMARE [3]: 100%; herbicidal effect ECHCG [22]: 80%
CCc1cc2scnc2nc1-c1cccc(F)c1 [Example I-029] | 90 | 100 | 100 | 100 | 100 | 100 | 90 | 100 | 100 | 100 | 90 | 100 | 90 | 100 | 100 | 100 | 90 | 100 | 90 | 90 | herbicidal effect AMARE [3]: 100%; herbicidal effect ECHCG [22]: 90%; herbicidal effect POLCO [23]: 90%
